The results in this text go back to ChEMBL document CHEMBL5653615 (J Biol Chem, 2013).

Experiment [1] addresses T1, Serine/threonine-protein kinase ULK2 (Homo sapiens) (UniProt Q8IYT8).
T1 sequence (whole entry): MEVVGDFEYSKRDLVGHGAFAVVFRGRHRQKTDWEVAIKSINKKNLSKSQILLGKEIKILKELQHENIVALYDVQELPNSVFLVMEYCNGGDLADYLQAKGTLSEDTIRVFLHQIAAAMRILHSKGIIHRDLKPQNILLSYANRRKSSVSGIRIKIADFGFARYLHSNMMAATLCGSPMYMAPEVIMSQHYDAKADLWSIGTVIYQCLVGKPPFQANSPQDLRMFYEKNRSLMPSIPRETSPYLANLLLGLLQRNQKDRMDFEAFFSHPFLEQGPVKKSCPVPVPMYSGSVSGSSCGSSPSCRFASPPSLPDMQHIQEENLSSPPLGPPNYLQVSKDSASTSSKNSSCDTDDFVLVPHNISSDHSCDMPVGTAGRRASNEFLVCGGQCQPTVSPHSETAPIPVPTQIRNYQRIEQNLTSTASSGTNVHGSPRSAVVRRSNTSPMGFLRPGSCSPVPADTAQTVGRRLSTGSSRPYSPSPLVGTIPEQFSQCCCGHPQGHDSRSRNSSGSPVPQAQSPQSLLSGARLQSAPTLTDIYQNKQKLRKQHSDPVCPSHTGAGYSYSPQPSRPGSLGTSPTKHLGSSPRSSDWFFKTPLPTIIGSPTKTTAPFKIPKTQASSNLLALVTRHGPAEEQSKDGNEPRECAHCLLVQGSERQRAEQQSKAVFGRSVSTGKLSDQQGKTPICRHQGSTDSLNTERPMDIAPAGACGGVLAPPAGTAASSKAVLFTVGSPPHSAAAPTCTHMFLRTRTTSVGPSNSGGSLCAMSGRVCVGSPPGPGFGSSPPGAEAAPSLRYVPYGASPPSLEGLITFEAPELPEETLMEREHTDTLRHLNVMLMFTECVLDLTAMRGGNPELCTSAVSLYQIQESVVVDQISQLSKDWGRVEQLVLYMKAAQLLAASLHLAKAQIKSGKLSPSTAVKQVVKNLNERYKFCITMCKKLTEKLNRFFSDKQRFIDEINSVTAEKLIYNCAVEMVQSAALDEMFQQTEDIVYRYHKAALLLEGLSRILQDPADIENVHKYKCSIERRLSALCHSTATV
Nature of the experiment: Inhibition of human ULK2 at 1.82 nM by HotSpot assay relative to control.

Experiment [2] concerns the target MAP/microtubule affinity-regulating kinase 3 (Homo sapiens) (UniProt P27448). Put plainly: Inhibition of human MARK3 at 1.82 nM by HotSpot assay relative to control.
Experiment [3] has as its target T2, Serine/threonine-protein kinase Nek1 (Homo sapiens) (UniProt Q96PY6).
T2 sequence (whole entry): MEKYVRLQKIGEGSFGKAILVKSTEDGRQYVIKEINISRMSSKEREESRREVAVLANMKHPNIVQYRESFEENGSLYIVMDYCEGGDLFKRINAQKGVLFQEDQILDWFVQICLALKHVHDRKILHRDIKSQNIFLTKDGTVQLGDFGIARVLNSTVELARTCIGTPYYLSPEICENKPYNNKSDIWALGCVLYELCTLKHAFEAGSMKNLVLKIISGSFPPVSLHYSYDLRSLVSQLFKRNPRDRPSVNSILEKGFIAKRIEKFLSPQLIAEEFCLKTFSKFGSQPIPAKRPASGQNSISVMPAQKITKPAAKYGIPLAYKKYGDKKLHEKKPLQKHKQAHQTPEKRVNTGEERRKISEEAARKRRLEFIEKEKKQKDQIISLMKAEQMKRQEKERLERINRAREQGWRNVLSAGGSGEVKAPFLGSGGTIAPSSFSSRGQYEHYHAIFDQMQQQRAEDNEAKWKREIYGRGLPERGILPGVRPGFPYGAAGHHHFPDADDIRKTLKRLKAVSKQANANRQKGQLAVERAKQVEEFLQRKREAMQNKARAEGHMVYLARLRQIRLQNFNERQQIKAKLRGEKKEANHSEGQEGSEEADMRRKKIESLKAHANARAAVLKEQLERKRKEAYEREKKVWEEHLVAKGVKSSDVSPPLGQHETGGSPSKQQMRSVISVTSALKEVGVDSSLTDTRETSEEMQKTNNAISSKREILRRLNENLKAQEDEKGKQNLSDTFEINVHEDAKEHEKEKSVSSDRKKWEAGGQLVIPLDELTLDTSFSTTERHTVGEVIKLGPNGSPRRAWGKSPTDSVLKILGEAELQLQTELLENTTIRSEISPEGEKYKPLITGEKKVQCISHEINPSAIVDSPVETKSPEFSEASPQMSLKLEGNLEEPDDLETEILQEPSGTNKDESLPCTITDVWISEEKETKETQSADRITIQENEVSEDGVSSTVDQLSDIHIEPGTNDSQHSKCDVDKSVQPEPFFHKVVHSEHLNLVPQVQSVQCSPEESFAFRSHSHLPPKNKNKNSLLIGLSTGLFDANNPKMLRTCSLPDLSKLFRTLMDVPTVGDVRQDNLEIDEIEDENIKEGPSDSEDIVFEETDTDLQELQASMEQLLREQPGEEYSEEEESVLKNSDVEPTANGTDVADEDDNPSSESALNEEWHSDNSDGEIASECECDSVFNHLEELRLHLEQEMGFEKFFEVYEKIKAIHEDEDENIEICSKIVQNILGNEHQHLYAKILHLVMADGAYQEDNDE
Nature of the experiment: Inhibition of human NEK1 at 500 nM by HotSpot assay relative to control.

Experiment [4] has as its target Serine/threonine-protein kinase Nek6 (Homo sapiens) (UniProt Q9HC98). Put plainly: Inhibition of human NEK6 at 18.6 nM by HotSpot assay relative to control.
Experiment [5] deals with Serine/threonine-protein kinase PLK3 (Homo sapiens) (UniProt Q9H4B4). Put plainly: Inhibition of human PLK3 at 18.6 nM by HotSpot assay relative to control.
Chain of Serine/threonine-protein kinase PLK3 (Homo sapiens) (Q9H4B4 whole entry, looked up): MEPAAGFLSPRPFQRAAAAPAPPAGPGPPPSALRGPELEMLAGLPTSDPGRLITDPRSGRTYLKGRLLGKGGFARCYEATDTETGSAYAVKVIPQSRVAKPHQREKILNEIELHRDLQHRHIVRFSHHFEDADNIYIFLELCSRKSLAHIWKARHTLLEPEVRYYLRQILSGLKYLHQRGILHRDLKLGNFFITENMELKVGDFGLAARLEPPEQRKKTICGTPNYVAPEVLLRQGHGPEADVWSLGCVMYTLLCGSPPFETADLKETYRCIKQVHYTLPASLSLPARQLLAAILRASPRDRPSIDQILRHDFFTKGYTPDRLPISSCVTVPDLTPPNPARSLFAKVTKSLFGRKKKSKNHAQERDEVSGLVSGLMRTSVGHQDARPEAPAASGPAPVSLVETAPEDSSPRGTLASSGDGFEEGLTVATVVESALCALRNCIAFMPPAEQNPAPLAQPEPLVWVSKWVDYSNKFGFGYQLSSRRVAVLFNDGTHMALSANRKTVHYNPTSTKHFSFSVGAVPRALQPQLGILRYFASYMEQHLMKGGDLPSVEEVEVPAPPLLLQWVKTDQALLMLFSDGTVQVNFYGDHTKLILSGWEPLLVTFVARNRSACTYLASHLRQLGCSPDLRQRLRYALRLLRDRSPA
Experiment [6] has as its target Ribosomal protein S6 kinase alpha-2 (Homo sapiens) (UniProt Q15349). Put plainly: Inhibition of human RSK3 at 18.6 nM by HotSpot assay relative to control.
The target in experiment [7] is Leucine-rich repeat serine/threonine-protein kinase 2 (Homo sapiens) (UniProt Q5S007). Nature of the experiment: Inhibition of human LRRK2 at 18.6 nM by HotSpot assay relative to control.
Chain of Leucine-rich repeat serine/threonine-protein kinase 2 (Homo sapiens) (Q5S007 whole entry): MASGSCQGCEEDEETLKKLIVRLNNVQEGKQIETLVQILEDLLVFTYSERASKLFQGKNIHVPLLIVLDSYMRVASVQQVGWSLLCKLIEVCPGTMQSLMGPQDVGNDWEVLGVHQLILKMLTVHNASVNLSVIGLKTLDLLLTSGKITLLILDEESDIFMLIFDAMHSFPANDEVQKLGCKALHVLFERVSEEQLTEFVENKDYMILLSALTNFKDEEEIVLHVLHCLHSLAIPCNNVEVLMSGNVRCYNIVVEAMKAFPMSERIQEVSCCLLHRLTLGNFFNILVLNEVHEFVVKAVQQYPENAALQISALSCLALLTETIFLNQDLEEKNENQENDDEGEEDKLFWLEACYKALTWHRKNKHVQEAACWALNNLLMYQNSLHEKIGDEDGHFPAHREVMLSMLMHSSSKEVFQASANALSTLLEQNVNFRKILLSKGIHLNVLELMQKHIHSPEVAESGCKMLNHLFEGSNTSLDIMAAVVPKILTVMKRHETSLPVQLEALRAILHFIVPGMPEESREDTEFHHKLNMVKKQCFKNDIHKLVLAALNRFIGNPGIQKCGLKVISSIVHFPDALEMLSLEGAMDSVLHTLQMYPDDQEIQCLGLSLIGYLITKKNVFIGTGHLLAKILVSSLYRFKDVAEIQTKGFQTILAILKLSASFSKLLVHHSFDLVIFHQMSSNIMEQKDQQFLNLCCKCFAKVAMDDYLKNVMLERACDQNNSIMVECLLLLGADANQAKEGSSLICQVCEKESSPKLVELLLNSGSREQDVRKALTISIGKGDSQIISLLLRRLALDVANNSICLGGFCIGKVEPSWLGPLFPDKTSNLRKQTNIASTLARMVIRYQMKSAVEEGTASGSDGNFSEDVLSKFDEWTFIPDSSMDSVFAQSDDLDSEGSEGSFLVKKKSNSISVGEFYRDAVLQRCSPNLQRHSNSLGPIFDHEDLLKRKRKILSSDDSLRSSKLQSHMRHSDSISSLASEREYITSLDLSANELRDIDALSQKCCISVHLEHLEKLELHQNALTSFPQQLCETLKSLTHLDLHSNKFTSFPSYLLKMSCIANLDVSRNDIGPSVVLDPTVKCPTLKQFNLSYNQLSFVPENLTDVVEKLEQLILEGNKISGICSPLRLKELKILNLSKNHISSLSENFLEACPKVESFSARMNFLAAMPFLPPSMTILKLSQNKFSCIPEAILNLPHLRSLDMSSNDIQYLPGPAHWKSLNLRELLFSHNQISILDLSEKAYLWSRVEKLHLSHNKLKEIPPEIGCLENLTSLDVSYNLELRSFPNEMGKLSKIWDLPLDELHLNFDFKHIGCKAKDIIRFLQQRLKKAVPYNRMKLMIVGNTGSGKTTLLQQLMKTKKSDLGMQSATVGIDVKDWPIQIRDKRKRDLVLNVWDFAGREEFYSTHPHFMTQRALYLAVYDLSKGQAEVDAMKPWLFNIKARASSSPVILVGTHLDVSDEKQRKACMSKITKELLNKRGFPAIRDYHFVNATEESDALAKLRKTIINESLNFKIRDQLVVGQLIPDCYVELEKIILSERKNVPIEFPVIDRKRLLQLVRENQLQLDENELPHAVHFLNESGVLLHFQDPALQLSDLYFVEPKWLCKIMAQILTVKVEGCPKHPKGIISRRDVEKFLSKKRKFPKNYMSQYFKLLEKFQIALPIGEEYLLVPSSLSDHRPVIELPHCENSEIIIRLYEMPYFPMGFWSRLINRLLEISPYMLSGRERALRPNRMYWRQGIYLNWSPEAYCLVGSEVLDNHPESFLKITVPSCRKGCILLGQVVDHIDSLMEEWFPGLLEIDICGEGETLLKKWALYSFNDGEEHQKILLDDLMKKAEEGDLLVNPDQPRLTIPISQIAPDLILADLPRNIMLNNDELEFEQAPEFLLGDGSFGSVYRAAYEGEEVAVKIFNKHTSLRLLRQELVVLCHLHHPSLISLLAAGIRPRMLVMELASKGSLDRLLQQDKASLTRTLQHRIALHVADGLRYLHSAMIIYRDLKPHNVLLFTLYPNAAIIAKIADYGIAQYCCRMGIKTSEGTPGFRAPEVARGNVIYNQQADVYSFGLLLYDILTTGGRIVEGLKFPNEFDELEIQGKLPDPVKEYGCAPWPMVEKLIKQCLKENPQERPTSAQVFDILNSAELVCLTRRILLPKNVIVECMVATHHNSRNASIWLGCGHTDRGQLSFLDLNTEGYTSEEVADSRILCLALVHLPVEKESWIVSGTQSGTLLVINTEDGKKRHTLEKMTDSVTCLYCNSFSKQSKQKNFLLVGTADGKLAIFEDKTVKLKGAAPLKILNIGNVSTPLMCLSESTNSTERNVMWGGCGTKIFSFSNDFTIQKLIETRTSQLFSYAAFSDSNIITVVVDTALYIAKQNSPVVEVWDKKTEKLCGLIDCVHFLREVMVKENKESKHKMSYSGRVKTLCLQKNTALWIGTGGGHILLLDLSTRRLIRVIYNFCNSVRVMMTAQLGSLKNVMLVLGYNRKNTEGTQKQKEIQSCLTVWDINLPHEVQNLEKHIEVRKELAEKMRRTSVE

Chain of Ribosomal protein S6 kinase alpha-2 (Homo sapiens) (Q15349 whole entry): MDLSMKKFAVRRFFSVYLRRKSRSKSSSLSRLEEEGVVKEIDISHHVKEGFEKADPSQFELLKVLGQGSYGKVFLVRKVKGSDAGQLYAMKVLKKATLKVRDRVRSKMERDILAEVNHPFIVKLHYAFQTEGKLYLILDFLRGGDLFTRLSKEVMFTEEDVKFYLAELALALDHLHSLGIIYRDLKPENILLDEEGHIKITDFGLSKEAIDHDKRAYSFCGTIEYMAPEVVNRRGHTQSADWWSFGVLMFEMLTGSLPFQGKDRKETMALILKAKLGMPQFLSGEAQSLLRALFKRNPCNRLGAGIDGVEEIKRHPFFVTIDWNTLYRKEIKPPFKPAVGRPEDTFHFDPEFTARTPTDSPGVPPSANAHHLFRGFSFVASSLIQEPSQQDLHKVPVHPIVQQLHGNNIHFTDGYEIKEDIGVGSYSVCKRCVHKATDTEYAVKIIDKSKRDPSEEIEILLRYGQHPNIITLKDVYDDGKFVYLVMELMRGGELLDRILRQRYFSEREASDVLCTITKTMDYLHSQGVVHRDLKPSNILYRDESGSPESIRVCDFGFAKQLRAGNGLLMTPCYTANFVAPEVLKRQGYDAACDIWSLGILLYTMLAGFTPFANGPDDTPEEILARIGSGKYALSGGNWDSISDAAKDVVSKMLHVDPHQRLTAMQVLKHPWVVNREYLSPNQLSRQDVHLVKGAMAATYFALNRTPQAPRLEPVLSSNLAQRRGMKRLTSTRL
Chain of MAP/microtubule affinity-regulating kinase 3 (Homo sapiens) (P27448 whole entry, looked up): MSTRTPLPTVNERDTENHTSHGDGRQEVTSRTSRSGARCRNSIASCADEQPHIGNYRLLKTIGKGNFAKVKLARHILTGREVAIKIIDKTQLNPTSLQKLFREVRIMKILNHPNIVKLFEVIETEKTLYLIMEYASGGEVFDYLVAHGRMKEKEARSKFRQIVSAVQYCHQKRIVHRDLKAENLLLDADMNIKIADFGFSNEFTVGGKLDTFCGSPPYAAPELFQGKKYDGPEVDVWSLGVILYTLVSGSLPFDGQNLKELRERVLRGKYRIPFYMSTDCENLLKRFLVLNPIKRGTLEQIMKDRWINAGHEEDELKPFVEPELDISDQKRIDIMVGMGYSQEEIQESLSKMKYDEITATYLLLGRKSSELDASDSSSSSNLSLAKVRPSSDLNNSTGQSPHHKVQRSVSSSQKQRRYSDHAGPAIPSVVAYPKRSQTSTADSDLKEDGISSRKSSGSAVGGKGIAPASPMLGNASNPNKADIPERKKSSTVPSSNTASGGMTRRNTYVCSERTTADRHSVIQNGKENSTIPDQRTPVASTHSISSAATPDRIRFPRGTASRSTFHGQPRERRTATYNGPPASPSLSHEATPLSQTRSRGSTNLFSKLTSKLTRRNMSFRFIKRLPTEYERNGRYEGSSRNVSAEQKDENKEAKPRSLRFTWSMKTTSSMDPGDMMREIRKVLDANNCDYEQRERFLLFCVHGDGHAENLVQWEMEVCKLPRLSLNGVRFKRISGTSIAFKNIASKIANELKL
Chain of Serine/threonine-protein kinase Nek6 (Homo sapiens) (Q9HC98 whole entry): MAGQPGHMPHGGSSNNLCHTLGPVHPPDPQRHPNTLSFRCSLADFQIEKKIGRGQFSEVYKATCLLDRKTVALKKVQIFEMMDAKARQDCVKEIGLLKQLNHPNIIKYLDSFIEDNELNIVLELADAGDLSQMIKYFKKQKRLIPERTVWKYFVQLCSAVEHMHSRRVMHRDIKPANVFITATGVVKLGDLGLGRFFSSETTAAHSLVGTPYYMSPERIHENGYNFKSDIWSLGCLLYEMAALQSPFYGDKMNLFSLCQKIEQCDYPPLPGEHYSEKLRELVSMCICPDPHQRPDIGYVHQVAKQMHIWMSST

In the case of `C[C@@]1(C(=O)Nc2ccc(F)nc2)CCCN1c1nc(Nc2cc(C3CC3)n[nH]2)c2cccn2n1`, the inhibition in experiment [1] is -7.91%; in experiment [2] it was 1.57%.

`Nc1n[nH]c2nnc(-c3c(-c4ccccc4)nn4ccccc34)cc12`: in experiment [3], the inhibition is -9.24%.

Regarding `C[C@]1(O)C[C@@H](c2nc(-c3ccc4ccc(-c5ccccc5)nc4c3)c3c(N)nccn32)C1`, the inhibition in experiment [4] is 14.9%; in experiment [5], 3.09%; in experiment [6], -2.23%; in experiment [7], -3.07%.
